Measured values from ChEMBL document CHEMBL1135927, “Vinyl sulfide cyclized analogues of angiotensin II with high affinity and full agonist activity at the AT(1) receptor” (J Med Chem, 2002).
Activity calls are given as the source filed them. No cut-off for these calls is given here. *1 amine or outer side, *2 acyl side, *3 side chain or, on linkers, in order; H or OH if unused. Where a SMILES comes first, the peptide text is derived from it. Bridges are numbered along the chain shown (N, C = ends). [ ]: non-standard residue; d: D form. X1 = O=C([C@H](CC/C=C\[*:3])N[*:1])[*:2]; X2 = O=C([C@H](CC/C=C/[*:3])N[*:1])[*:2]; hCys = N[C@@H](CCS)C(=O)O

Experiments:
[1] = biological target: T1, Type-1 angiotensin II receptor B (Rattus norvegicus) (UniProt P29089); experiment: In vitro binding affinity at rat liver Angiotensin II receptor, type 1 was determined based on displacement of [125I]-Ang II; no affinity
T1 sequence (whole entry): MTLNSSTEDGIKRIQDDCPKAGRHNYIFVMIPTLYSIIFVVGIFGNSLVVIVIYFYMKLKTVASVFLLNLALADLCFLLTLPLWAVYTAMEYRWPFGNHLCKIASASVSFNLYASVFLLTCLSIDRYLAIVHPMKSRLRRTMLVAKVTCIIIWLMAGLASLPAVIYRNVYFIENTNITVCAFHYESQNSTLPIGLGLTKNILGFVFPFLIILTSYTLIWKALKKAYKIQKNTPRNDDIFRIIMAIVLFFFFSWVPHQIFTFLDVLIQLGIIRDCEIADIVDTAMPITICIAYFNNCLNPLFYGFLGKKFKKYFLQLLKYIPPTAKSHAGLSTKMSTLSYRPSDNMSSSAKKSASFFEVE

[2] = biological target: T2, Type-1 angiotensin II receptor B (Rattus norvegicus, UniProt P29089); experiment: In vitro binding affinity at rat liver Angiotensin II receptor, type 1 was determined based on displacement of [125I]-Ang II
T2 sequence (P29089 whole entry): T1 sequence (whole entry)

Oryctolagus cuniculus = species on record: Oryctolagus cuniculus; experiment: Agonistic activity in vascular contractility study on rabbit aorta; format: functional, organism-based

Structure (SMILES)	Ki [2]	EC50 (Oryctolagus cuniculus)	also measured
CC(C)[C@H](NC(=O)[C@H](CCCN=C(N)N)NC(=O)[C@@H](N)CC(=O)O)C(=O)N[C@@H](Cc1ccc(O)cc1)C(=O)N[C@H]1CC/C=C\SC[C@@H](C(=O)N[C@@H](Cc2ccccc2)C(=O)O)NC(=O)[C@H](Cc2c[nH]cn2)NC1=O (H-DRVY[X1]HCF-OH; thioether 5-7)			NA [1]: inactive
NC(N)=NCCC[C@H](NC(=O)[C@@H](N)CC(=O)O)C(=O)N[C@H]1CS/C=C/CC[C@@H](C(=O)N[C@@H](Cc2cnc[nH]2)C(=O)N2CCC[C@H]2C(=O)N[C@@H](Cc2ccccc2)C(=O)O)NC(=O)[C@H](Cc2ccc(O)cc2)NC1=O (H-DRCY[X2]HPF-OH; thioether 3-5)	1.7 nM		
CC(C)[C@H](NC(=O)[C@H](CCCN=C(N)N)NC(=O)[C@@H](N)CC(=O)O)C(=O)N[C@@H](Cc1ccc(O)cc1)C(=O)N[C@H]1CC/C=C/SC[C@@H](C(=O)N[C@@H](Cc2ccccc2)C(=O)O)NC(=O)[C@H](Cc2c[nH]cn2)NC1=O (H-DRVY[X2]HCF-OH; thioether 5-7)			NA [1]: inactive
CC[C@H](C)[C@H](NC(=O)[C@H](Cc1ccc(O)cc1)NC(=O)[C@@H](NC(=O)[C@H](CCCNC(=N)N)NC(=O)[C@@H](N)CC(=O)O)C(C)C)C(=O)N[C@@H](Cc1cnc[nH]1)C(=O)N1CCC[C@H]1C(=O)N[C@@H](Cc1ccccc1)C(=O)O [ANGIOTENSIN II]		1.4 nM	
NC(N)=NCCC[C@H](NC(=O)[C@@H](N)CC(=O)O)C(=O)N[C@H]1CS/C=C/CC[C@@H](C(=O)N[C@@H](Cc2c[nH]cn2)C(=O)N2CCC[C@H]2C(=O)N[C@@H](Cc2ccccc2)C(=O)O)NC(=O)[C@H](Cc2ccc(O)cc2)NC1=O (H-DRCY[X2]HPF-OH; thioether 3-5)		16.1 nM	
NC(N)=NCCC[C@H](NC(=O)[C@@H](N)CC(=O)O)C(=O)N[C@H]1CS/C=C\CC[C@@H](C(=O)N[C@@H](Cc2cnc[nH]2)C(=O)N2CCC[C@H]2C(=O)N[C@@H](Cc2ccccc2)C(=O)O)NC(=O)[C@H](Cc2ccc(O)cc2)NC1=O (H-DRCY[X1]HPF-OH; thioether 3-5)	1.7 nM		
NC(N)=NCCC[C@H](NC(=O)[C@@H](N)CC(=O)O)C(=O)N[C@H]1CCSSCC[C@@H](C(=O)N[C@@H](Cc2c[nH]cn2)C(=O)N2CCC[C@H]2C(=O)N[C@@H](Cc2ccccc2)C(=O)O)NC(=O)[C@H](Cc2ccc(O)cc2)NC1=O (H-DR[hCys]Y[hCys]HPF-OH; disulfide 3-5)	0.23 nM		
NC(N)=NCCC[C@H](NC(=O)[C@@H](N)CC(=O)O)C(=O)N[C@H]1CS/C=C\CC[C@@H](C(=O)N[C@@H](Cc2c[nH]cn2)C(=O)N2CCC[C@H]2C(=O)N[C@@H](Cc2ccccc2)C(=O)O)NC(=O)[C@H](Cc2ccc(O)cc2)NC1=O (H-DRCY[X1]HPF-OH; thioether 3-5)		26 nM	
